# Assay results reported in patent publication US20200397855A1, “MODULATION OF PLA2-G1B IN THERAPY” (priority 2018, published 2020).
# T1: gC1qR (Homo sapiens, UniProt Q07021)
# T1 sequence (Q07021 74-282): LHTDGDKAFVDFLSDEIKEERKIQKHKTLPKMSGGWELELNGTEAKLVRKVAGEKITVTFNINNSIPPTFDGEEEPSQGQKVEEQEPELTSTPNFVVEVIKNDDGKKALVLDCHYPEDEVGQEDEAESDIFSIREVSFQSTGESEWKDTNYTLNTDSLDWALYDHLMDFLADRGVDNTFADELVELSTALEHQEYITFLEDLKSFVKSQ
# B1: HCV core protein: Recombinant HCV core protein (Prospec HCV-011), SEQ ID NO: 43 (protein)
# chain: MSTNPKPQRKTKRNTIRRPQDVKFPGGGQIVGGVYLLPRRGPRLGVRATRKTSERSQPRGRRQPIPKARRPEGRTWAQPGYPWPLYGNEGMGWAGWLLSPRGSRPSWGPTDPRRRSRNLGKVIDTLTCGFADLMGYVPLVGAPLGGAARALAHGVRALEDGVNYATGNLPGCSFSISLWXLLSCLTIPASA
# modifications: not fully specified; X: residue not identified in the source
# Assays:
# [1] = test system: pSTAT5 NT in CD4 T cells stimulated with IL-7; test: PLA2-GIB bioassay on CD4 T cells: pSTAT5 nuclear translocation in response to IL-7 (confocal microscopy); type: cell-based, human; details: for effect on nuclear translocation of phosphoSTAT5 (pSTAT5 NT) induced by IL-7: buffer, FIG. 1A; for pSTAT5 NT in response to IL-7: FIG. 2
# Description: Purification of Human CD4 T-lymphocytes—Venous blood was obtained from healthy volunteers through the EFS (Etablissement Francais du Sang, Centre Necker-Cabanel, Paris). CD4 T-cells were purified from whole blood using RosetteSep Human CD4+ T cell Enrichment Cocktail (Stem Cell, 15062). This cocktail contains mouse and rat monoclonal antibodies purified from mouse ascites fluid or hybridoma culture supernatant, by affinity chromatography using protein A or Protein G sepharose. These antibodies are bound in bispecific tetrameric antibody complexes which are directed against cell surface antigens on human hematopoietic cells (CD8, CD16, CD19, CD36, CD56 CD66b, TCRγ/δ) and glycophorin A on red blood cells. The rosetteSep antibody cocktail crosslinks unwanted cells in human whole blood to multiple red blood cells, forming immunorosettes. This increases the density of unwanted cells, such that they pellet along with the free red blood cells when centrifuged over a buoyant density medium such as lymphocytes separation medium (Eurobio, CMSMSL01-01).
# Whole blood was incubated with RosetteSep Human CD4+ T cell Enrichment Cocktail at 50 μl/ml for 20 minutes at room temperature under gentle shaking (100 rpm), diluted with an equal volume of PBS+2% foetal bovine serum (FBS) and mixed gently. The diluted samples were centrifuged 20 minutes at 1200×g on top of lymphocytes separation medium. The enriched cells were then collected from the density medium at plasma interface and washed twice with PBS+2% FBS. Cells were subsequently resuspended in RPMI 1640 medium (Lonza) supplemented with 5% FBS, 50 mM HEPES pH 7.4, glutamine, penicillin, streptomycin and fungizone (complete medium), counted with a Moxi Z mini automated cell counter (ORFLO, MXZ000). Cells suspension was adjusted at 7×10^6 cells/ml and equilibrated at least 2 h at 37° C. in a 5% CO2 humidified atmosphere.
# [2] = test system: PLA2-GIB activity on the membrane of Jurkat E6.1 T cells; test: PLA2-GIB enzymatic assay on [3H] arachidonic acid labelled Jurkat E6.1 T cells; type: cell-based, human; details: for PLA2-GIB activity vs scrambled PEP3: pretreatment 21 h
# Method: (§1) Jurkat E6.1 T cells (ECACC 88042803) or gC1qR KO Jurkat E6.1 T cells were incubated for 17 h at 5×10^5 cells/ml with 1 μCi/ml of arachidonic acid [5,6,8,9,11,14,15-^3H(N)] (Perkin Elmer, NET298Z250UC) in RPMI 1640 medium (Lonza) supplemented with 10% FBS, 50 mM HEPES pH 7.4, glutamine, penicillin, streptomycin and fungizone at 2 ml/well in 6-well plates at 37° C. in a 5% CO2 humidified atmosphere. Cells were washed twice with RPMI with 10% FBS by centrifugation at 300×g for 10 minutes at room temperature and then frozen in 90% FBS 10% DMSO at 10^7 cells/ml/vial at −80° C. Percent of [3H] arachidonic acid in CD4 T cells is the (1 minus ratio of [3H] arachidonic acid in the supernatant of CD4 T cells without cells (cpm/ml) on total [3H] arachidonic acid in supernatant and cells (cpm/ml).
# To test PLA2-GIB activity on [3H] arachidonic acid labelled Jurkat E6.1 T lymphocytes, cells were unfrozen in 10% FBS RPMI preheated at 37° C. by centrifugation at 300×g for 10 minutes at room temperature, washed twice in 2.5% FBS RPMI, and equilibrated at 5×10^4 or 10^5 Jurkat E6.1 T cells/400 μl/well in 24-well polystyrene plates for 1 h 30 at 37° C. in a 5% CO2 humidified atmosphere. Then HCV core solution or vehicle dilution in 2.5% FBS RPMI at 5.95 μM was mixed with an equal volume of a PLA2-GIB solution at 630 nM or 2 μM 2.5% FBS RPMI and 100 μl were added per well at the same time for 2 h. For peptide treatments, cells were pretreated for 2 h, 4 h or 21 h, as indicated on figures, with 50 μl per well of peptide solutions at 110 μM or 55 μM in 2.5% FBS RPMI. Then 50 μl per well of PLA2-GIB at 630 nM or 2 μM 2.5% FBS RPMI or medium alone were added for 2 h. Cells and supernatant were collected in eppendorf tubes and centrifuged at 580×g for 10 minutes at room temperature. The [3H] arachidonic acid released in cell supernatant was quantified in 300 μl with 16 ml of Ultima gold (Perkin Elmer, 6013329) in low diffusion vials (Perkin Elmer, 6000477) on a counter (tri-Carb 2800 TR liquid scintillation analyzer, Perkin Elmer).
# gC1qR = molecular target: T1, gC1qR; test: gC1qR-peptides binding assay (ELISA); details: peptide coated on microplate, His-tag-gC1qR 0 to 3 μg/well, FIG. 12
# Method: The unbound protein was removed; the wells washed 2× with TBST (20 mM Tris-HCl pH 7.5, 150 mM NaCl, and 0.05% Tween-20) and the unreacted sites blocked by incubation (30 min, room temp) with 300 μl of 3% BSA in TBST. After washing (2× with TBST), the microtiter plate bound peptides was incubated (2 h, room temp.) with different amount of His-tag-gC1qR ranging from 0 to 3 μg/well in triplicate. After washing (5 times with TBST), 100 μl of anti-His tag-HRP antibody (1:1000; 71840-3, Merck) in 3% BSA in TBST was added per well and incubated for 2 h at room temperature. Microplates wells were then washed (5 times with TBST) and 100 μl of TMB ELISA substrate standard solution (UP664781, Interchim) was added per well. Reaction was stopped with 100 μl per well of a H2SO4 solution at 0.16M and OD at 450 nm was measured on a microplate reader (Tecan Infinite M1000 Pro).
# [3] = test system: PLA2-GIB enzymatic activity on CD4 T cells membranes; test: PLA2-GIB enzymatic assay on [3H] arachidonic acid labelled CD4 T cells; type: cell-based, human
# Method: as §1, with “PLA2-GIB enzymatic assay on [3H] arachidonic acid labelled CD4 T cells or Jurkat” for “Jurkat”, “cells—Purified CD4 T-cells” for “cells (ECACC 88042803) or gC1qR KO Jurkat E6.1 T cells”, “16” for “17”, “2×10^6” for “5×10^5”, “580×g” for “300×g”
# To test PLA2-GIB activity on [3H] arachidonic acid labelled CD4 T lymphocytes, cells were unfrozen in 10% FBS RPMI preheated at 37° C. by centrifugation at 580×g for 10 minutes at room temperature, washed twice in 2.5% FBS RPMI, and equilibrated at 2×10^5 CD4 T cells/400 μl/well in 24-well polystyrene plates for 1 h 30 at 37° C. in a 5% CO2 humidified atmosphere. […] Cells and supernatant were collected in eppendorf tubes and centrifuged at 580×g for 10 minutes at room temperature. The [3H] arachidonic acid released in cell supernatant was quantified in 300 μl with 16 ml of Ultima gold (Perkin Elmer, 6013329) in low diffusion vials (Perkin Elmer, 6000477) on a counter (tri-Carb 2800 TR liquid scintillation analyzer, Perkin Elmer).
# To study PLA2-GIB effect on CD4 T cells membranes we developed a new enzymatic assay in which CD4 T cells are labelled with [3H] arachidonic acid. When these cells are exposed to PLA2-GIB the enzymatic activity on CD4 T cells releases [3H] arachidonic acid. The quantification of [3H] arachidonic acid allowed us to quantify PLA2-GIB activity.
# [4] = peptide alone, without PLA2-GIB, FIG. 5B
molecule,measurement,setting,value
"PLA2-GIB: Recombinant human group IB pancreatic phospholipase A2, produced in E. coli or CHO-S (SEQ ID NO: 1)",effect on nuclear translocation of phosphoSTAT5 (pSTAT5 NT) induced by IL-7,[1]; 5 nM PLA2-GIB alone,does not affect
same,pSTAT5 NT in response to IL-7,"[1]; 5 nM PLA2-GIB, compared with no PLA2-GIB",biologically similar
same,inhibition of pSTAT5 NT,"[1]; 75 nM PLA2-GIB alone, FIG. 4",49%
same,effect on nuclear translocation of phosphoSTAT5 (pSTAT5 NT) induced by IL-7,[1]; 75 nM PLA2-GIB alone,significantly decreases
same,pSTAT5 NT in response to IL-7,[1]; 75 nM PLA2-GIB,50%
same,inhibition of pSTAT5 NT,"[1]; 250 nM PLA2-GIB alone, FIG. 4",79%
same,pSTAT5 NT in response to IL-7,[1]; 250 nM PLA2-GIB,10%
"C1q: Complement component C1q from human serum (Sigma C1740), natural ligand of gC1qR",inhibition of pSTAT5 NT,"[1]; C1q (10 μg/ml) with 5 nM PLA2-GIB, FIG. 6A",75-85%
same,inhibition of pSTAT5 NT,"[1]; C1q alone (10 μg/ml), FIG. 6A",40%
NH2-PWNASWSNKSLDDIW-COOH (H-PWNASWSNKSLDDIW-OH) [PEP3],PLA2-GIB activity vs scrambled PEP3,"[2]; WT Jurkat E6.1 cells, FIG. 13",increased significantly
same,PLA2-GIB activity on the membrane of Jurkat E6.1 T cells vs scrambled PEP3,"[2]; pretreatment 4 h or more, peptide 11 μM, 200 nM PLA2-GIB, FIG. 11",significantly increased
same,inhibition of pSTAT5 NT,"[1]; 0.025 μg/ml PEP3 with 5 nM PLA2-GIB, FIG. 5B",18%
same,inhibition of pSTAT5 NT,"[1]; 0.5 μg/ml PEP3 alone, n=3 donors, FIG. 5C",5%
same,inhibition of pSTAT5 NT,"[1]; 2.5 μg/ml PEP3 with 5 nM PLA2-GIB, FIG. 5B",51%
same,effect on pSTAT5 NT,[1]; [4],no effect
same,binding to gC1qR,gC1qR,binds to gC1qR
NH2-SGEGGWSNGSLVDIM-COOH (H-SGEGGWSNGSLVDIM-OH) [HP Pg],PLA2-GIB activity vs scrambled PEP3,"[2]; 200 nM PLA2-GIB, FIG. 15",significantly increased
"NH2-WNWDSKILSDPAWNS-COOH (H-WNWDSKILSDPAWNS-OH) [Scrambled PEP3, Scrambled PEP3 control peptide]",binding to gC1qR,gC1qR,essentially do not
"NH2-PWNATWTQRTLDDIW-COOH (H-PWNATWTQRTLDDIW-OH) [CTL peptide, control peptide (CTL), reference compound]",effect on pSTAT5 NT,[1]; [4],no effect
same,effect on pSTAT5 NT,"[1]; peptide with 5 nM PLA2-GIB, FIG. 5B",no effect
same,binding to gC1qR,gC1qR,essentially do not
B1,PLA2-GIB activity on the membrane of Jurkat E6.1 T cells,"[2]; HCV core 595 nM (10 μg/ml), FIG. 14",significantly increased
same,release of [3H] arachidonic acids by CD4 T cells,"[3]; 10 μg/ml HCV core protein alone, FIG. 8B",slightly and significantly increases
same,fold increase of PLA2-GIB activity,"[3]; 10 μg/ml HCV core protein, 63 nM PLA2-GIB, FIG. 8A",26 fold
same,fold increase of PLA2-GIB activity,"[3]; 10 μg/ml HCV core protein, 63 nM PLA2-GIB, n=3 donors, FIG. 8B",26 fold
same,fold increase of PLA2-GIB activity,"[3]; 10 μg/ml HCV core protein, 200 nM PLA2-GIB, FIG. 8A",16 fold
same,fold increase of PLA2-GIB activity,"[3]; 10 μg/ml HCV core protein, 200 nM PLA2-GIB, n=3 donors, FIG. 8B",16 fold
same,fold increase of PLA2-GIB activity,"[3]; 20 μg/ml HCV core protein, 63 nM PLA2-GIB, FIG. 8A",36 fold
same,fold increase of PLA2-GIB activity,"[3]; 20 μg/ml HCV core protein, 200 nM PLA2-GIB, FIG. 8A",26 fold
same,release of [3H] arachidonic acids by CD4 T cells,"[3]; HCV core protein alone at 10 and 20 μg/ml, FIG. 8A",slightly induces
